Measured values taken from PubChem BioAssay AID328 (DTP/NCI, 2004).
Where “and” joins values, the source holds several entries; their conditions need not be identical. Equal values may be shown once. Inconclusive results and toxic doses are left out.

Tested on: BDF1 mice, P388 leukemia ip, median survival T/C
Experiment: NCI In Vivo Anticancer Drug Screen. Data for tumor model P388 Leukemia (intraperitoneal) in B6D2F1 (BDF1) mice
Details: endpoint: median survival time, higher = longer survival
Procedure, shortened: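 Reported as T/C, where T is the survival measurement in dosed animals and C the same measurement in vehicle controls.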

[1] = dose: 100.0 mg/kg/injection, schedule: Q01DX001 (ip), vehicle: saline with Tween-80
[2] = dose: 200.0 mg/kg/injection, schedule: Q01DX001 (ip), vehicle: saline with Tween-80
[3] = dose: 400.0 mg/kg/injection, schedule: Q01DX001 (ip), vehicle: saline with Tween-80
[4] = dose: 50.0 mg/kg/injection, schedule: Q04DX003 (ip), vehicle: saline sonified
[5] = dose: 100.0 mg/kg/injection, schedule: Q04DX003 (ip), vehicle: saline sonified
[6] = dose: 12.5 mg/kg/injection, schedule: Q01DX009 (ip), vehicle: saline with Tween-80
[7] = dose: 50.0 mg/kg/injection, schedule: Q01DX009 (ip), vehicle: saline with Tween-80
[8] = dose: 100.0 mg/kg/injection, schedule: Q01DX009 (ip), vehicle: saline with Tween-80
[9] = dose: 50.0 mg/kg/injection, schedule: Q01DX009 (ip), vehicle: Klucel (hydroxypropylcellulose) (HPC)
[10] = dose: 50.0 mg/kg/injection, schedule: Q04DX003 (ip), vehicle: saline
[11] = dose: 100.0 mg/kg/injection, schedule: Q01DX009 (ip), vehicle: Klucel (hydroxypropylcellulose) (HPC)
[12] = dose: 100.0 mg/kg/injection, schedule: Q04DX003 (ip), vehicle: saline
[13] = dose: 200.0 mg/kg/injection, schedule: Q04DX003 (ip), vehicle: saline
[14] = dose: 25.0 mg/kg/injection, schedule: Q01DX009 (ip), vehicle: saline with Tween-80
[15] = dose: 6.25 mg/kg/injection, schedule: Q01DX009 (ip), vehicle: saline with Tween-80

SMILES: CCCCCCCCCCCCCCCCC(C(=O)O)C(O)(CC(=O)O)C(=O)O (configuration not stated)
- T/C (dose: 25.0 mg/kg/injection, schedule: Q01DX010 (ip), vehicle: saline): 104 % of control
- T/C (dose: 50.0 mg/kg/injection, schedule: Q01DX010 (ip), vehicle: saline): 100 % of control

SMILES: O=CNc1ccccc1Cl
- T/C [1]: 112 % of control
- T/C [2]: 91 % of control
- T/C [3]: 91 % of control

SMILES: C[N+](C)(CC(=O)Nc1ccc(Cl)c(C(F)(F)F)c1)Cc1ccc(Cl)cc1
- T/C (dose: 25.0 mg/kg/injection, schedule: Q04DX003 (ip), vehicle: saline sonified): 110 % of control
- T/C [4]: 110 % of control
- T/C [5]: 90 % of control

SMILES: CCOc1cc(/C=N\Nc2nnc(C)n2N)c(C)cc1N(CCCl)CCCl
- T/C (dose: 5.5 mg/kg/injection, schedule: Q01DX009 (ip), vehicle: saline with Tween-80): 200 % of control
- T/C (dose: 8.3 mg/kg/injection, schedule: Q01DX009 (ip), vehicle: saline with Tween-80): 209 % of control
- T/C [6]: 272 % of control
- T/C (dose: 18.7 mg/kg/injection, schedule: Q01DX009 (ip), vehicle: saline with Tween-80): 195 % of control
- T/C (dose: 40.0 mg/kg/injection, schedule: Q04DX003 (ip), vehicle: saline): 204 % of control
- T/C [4]: 168 % of control
- T/C [5]: 86 % of control

SMILES: O=c1ccc2c([nH]1)CCCCC2
- T/C [4]: 104 % of control
- T/C [5]: 100 % of control
- T/C (dose: 200.0 mg/kg/injection, schedule: Q04DX003 (ip), vehicle: saline sonified): 95 % of control

SMILES: CCSc1ncnc2[nH]ncc12
- T/C (dose: 6.25 mg/kg/injection, schedule: Q01DX009 (ip), vehicle: saline + alcohol): 101 % of control
- T/C (dose: 12.5 mg/kg/injection, schedule: Q01DX009 (ip), vehicle: saline + alcohol): 100 % of control
- T/C (dose: 25.0 mg/kg/injection, schedule: Q01DX009 (ip), vehicle: saline + alcohol): 100 % of control
- T/C (dose: 50.0 mg/kg/injection, schedule: Q01DX009 (ip), vehicle: saline + alcohol): 98 % of control

SMILES: Cc1cc(O)c(C(c2ccc(N(C)C)cc2Cl)c2c(O)cc(C)[nH]c2=O)c(=O)[nH]1
- T/C [7]: 99 % of control
- T/C [8]: 115 % of control

SMILES: ClCCN(CCCN(CCCl)c1ccccc1)c1ccccc1
- T/C (dose: 100.0 mg/kg/injection, schedule: Q01DX001 (ip), vehicle: saline + alcohol): 118 % of control
- T/C [2]: 156 % of control
- T/C (dose: 400.0 mg/kg/injection, schedule: Q01DX001 (ip), vehicle: saline + alcohol): 151 % of control
- T/C [3]: 166 % of control
- T/C (dose: 800.0 mg/kg/injection, schedule: Q01DX001 (ip), vehicle: saline with Tween-80): 205 % of control

SMILES: O=C(CSCSCC(=O)Nc1ccc(C2=NCCN2)cc1)Nc1ccc(C2=NCCN2)cc1
- T/C (dose: 10.0 mg/kg/injection, schedule: Q01DX009 (ip), vehicle: Klucel (hydroxypropylcellulose) (HPC)): 91 % of control
- T/C (dose: 12.5 mg/kg/injection, schedule: Q04DX003 (ip), vehicle: saline): 100 % of control
- T/C (dose: 25.0 mg/kg/injection, schedule: Q01DX009 (ip), vehicle: Klucel (hydroxypropylcellulose) (HPC)): 100 % of control and 115 % of control
- T/C [9]: 165 % of control
- T/C [10]: 104 % of control and 109 % of control
- T/C (dose: 75.0 mg/kg/injection, schedule: Q04DX003 (ip), vehicle: saline): 104 % of control
- T/C [11]: 90 % of control
- T/C [12]: 114 % of control
- T/C (dose: 135.0 mg/kg/injection, schedule: Q04DX003 (ip), vehicle: saline): 157 % of control
- T/C [13]: 157 % of control

SMILES: CCCNC(=O)Oc1ccc(C(=O)OCC)cc1
- T/C (dose: 100.0 mg/kg/injection, schedule: Q04DX003 (ip), vehicle: saline with Tween-80): 100 % of control
- T/C (dose: 200.0 mg/kg/injection, schedule: Q04DX003 (ip), vehicle: saline with Tween-80): 109 % of control
- T/C (dose: 400.0 mg/kg/injection, schedule: Q04DX003 (ip), vehicle: saline with Tween-80): 113 % of control

SMILES: CC(=O)CC(=O)c1ccccc1
- T/C (dose: 100.0 mg/kg/injection, schedule: Q01DX001 (ip), vehicle: Klucel (hydroxypropylcellulose) (HPC)): 112 % of control
- T/C (dose: 100.0 mg/kg/injection, schedule: Q04DX003 (ip), vehicle: Klucel (hydroxypropylcellulose) (HPC)): 108 % of control
- T/C (dose: 200.0 mg/kg/injection, schedule: Q01DX001 (ip), vehicle: Klucel (hydroxypropylcellulose) (HPC)): 95 % of control
- T/C (dose: 200.0 mg/kg/injection, schedule: Q04DX003 (ip), vehicle: Klucel (hydroxypropylcellulose) (HPC)): 108 % of control
- T/C (dose: 400.0 mg/kg/injection, schedule: Q01DX001 (ip), vehicle: Klucel (hydroxypropylcellulose) (HPC)): 91 % of control
- T/C (dose: 400.0 mg/kg/injection, schedule: Q04DX003 (ip), vehicle: Klucel (hydroxypropylcellulose) (HPC)): 112 % of control

SMILES: O=C(O)c1ccc(Oc2nc3ccccc3s2)cc1
- T/C [14]: 95 % of control
- T/C [7]: 95 % of control
- T/C [8]: 104 % of control

SMILES: CCOC(=O)C1=C(C)NC(C)=C(C(=O)OCC)C1c1cccc([N+](=O)[O-])c1
- T/C [9]: 105 % of control
- T/C [11]: 100 % of control
- T/C (dose: 200.0 mg/kg/injection, schedule: Q01DX009 (ip), vehicle: Klucel (hydroxypropylcellulose) (HPC)): 90 % of control

SMILES: CC(=O)Nc1ccc(S(=O)(=O)N/N=C\c2ccc(Cl)c(Cl)c2)cc1
- T/C [15]: 99 % of control
- T/C [6]: 98 % of control
- T/C [14]: 96 % of control

SMILES: O=NN(CCF)C(=O)NC1CCCCC1
- T/C (dose: 1.0 mg/kg/injection, schedule: Q04DX003 (ip), vehicle: saline with Tween-80): 90 % of control
- T/C (dose: 2.0 mg/kg/injection, schedule: Q04DX003 (ip), vehicle: saline with Tween-80): 105 % of control
- T/C (dose: 4.0 mg/kg/injection, schedule: Q04DX003 (ip), vehicle: saline with Tween-80): 120 % of control
- T/C [15]: 217 % of control
- T/C [6]: 260 % of control
- T/C (dose: 16.5 mg/kg/injection, schedule: Q04DX003 (ip), vehicle: saline with Tween-80): 272 % of control
- T/C [14]: 121 % of control
- T/C (dose: 25.0 mg/kg/injection, schedule: Q04DX003 (ip), vehicle: saline with Tween-80): 95 % of control
- T/C (dose: 37.5 mg/kg/injection, schedule: Q04DX003 (ip), vehicle: saline with Tween-80): 95 % of control

SMILES: Cc1c(C(=O)O)cc2n(c1=O)Cc1cc3ccccc3nc1-2
- T/C (dose: 50.0 mg/kg/injection, schedule: Q01DX009 (ip), vehicle: saline): 95 % of control
- T/C [10]: 92 % of control
- T/C (dose: 100.0 mg/kg/injection, schedule: Q01DX009 (ip), vehicle: saline): 113 % of control
- T/C [12]: 100 % of control
- T/C (dose: 200.0 mg/kg/injection, schedule: Q01DX009 (ip), vehicle: saline): 100 % of control
- T/C [13]: 96 % of control

SMILES: COc1ccc(C2CCc3cc(OC)c(OC)cc3C2NC=O)cc1OC (configuration not stated)
- T/C (dose: 120.0 mg/kg/injection, schedule: Q01DX009 (ip), vehicle: saline with Tween-80): 87 % of control
- T/C (dose: 240.0 mg/kg/injection, schedule: Q01DX009 (ip), vehicle: saline with Tween-80): 95 % of control

SMILES: CC(C)OC(CCC#N)c1ccc(Cl)cc1 (configuration not stated)
- T/C (dose: 100.0 mg/kg/injection, schedule: Q04DX003 (ip), vehicle: other): 95 % of control
- T/C (dose: 400.0 mg/kg/injection, schedule: Q04DX003 (ip), vehicle: other): 95 % of control

SMILES: CC1(C)N=C(c2ccc3ccccc3c2)CC1C#N (configuration not stated)
- T/C [1]: 100 % of control
- T/C [2]: 100 % of control
- T/C [3]: 95 % of control

SMILES: CCNCc1ccc(OC)cc1
- T/C (dose: 25.0 mg/kg/injection, schedule: Q04DX003 (ip), vehicle: saline): 100 % of control
- T/C [10]: 100 % of control
- T/C [12]: 100 % of control

SMILES: COC(=O)c1cc(=O)nc(N/N=C/c2ccccc2)s1
- T/C (dose: 50.0 mg/kg/injection, schedule: Q01DX005 (ip), vehicle: saline with Tween-80): 109 % of control
- T/C (dose: 100.0 mg/kg/injection, schedule: Q01DX005 (ip), vehicle: saline with Tween-80): 110 % of control
- T/C (dose: 200.0 mg/kg/injection, schedule: Q01DX005 (ip), vehicle: saline with Tween-80): 109 % of control

SMILES: CC(=O)OC1CC2(O)C(CCC3(C)C(c4ccc(=O)oc4)CCC32O)C2(C)CCC(OC3OC(CO)C(O)C(O)C3O)C=C12 (configuration not stated)
- T/C (dose: 125.0 micrograms/kg/injection, schedule: Q01DX010 (ip), vehicle: saline): 90 % of control

SMILES: O=C1CC(c2ccc(Br)cc2)N(c2ccc([As](=O)(O)O)cc2)C1=O (configuration not stated)
- T/C (dose: 3.13 mg/kg/injection, schedule: Q01DX009 (ip), vehicle: saline with Tween-80): 90 % of control
- T/C [15]: 109 % of control
- T/C [6]: 109 % of control

SMILES: CC(=O)C(O)c1c(O)cc(C)[nH]c1=O (configuration not stated)
- T/C [7]: 100 % of control
- T/C [8]: 97 % of control
- T/C (dose: 200.0 mg/kg/injection, schedule: Q01DX009 (ip), vehicle: saline with Tween-80): 98 % of control
